Results published in US20110306554A1, “PEPTIDE CAPABLE OF BINDING TO IMMUNOGLOBULIN” (priority 2009, published 2011).
“Also recorded” adds a separate entry of the source.

Experiments:
[1] = system: Cy3-labeled goat anti-mouse immunoglobulin (IgG); experiment: Peptide array of C1q subunit 15-mers probed with Cy3-labeled immunoglobulin; type: binding; conditions: peptide spots on glass array, 4° C., 12 hours, background fluorescence intensity is 2.6
From the text: The amino acid sequences of the A, B, and C subunit chains of human C1q, are shown in SEQ ID NOs: 17 to 19, and the nucleotide sequences in SEQ ID NOs: 20 to 22. Based on each of the amino acid sequences, sequences having 15 amino acids (residues) from each subunit and shifted at intervals of three amino acids, were synthesized on a glass array as synthetic peptides (Peptide Nos. 1 to […], and 193 to 270 for the A, B, and C chains, respectively). The synthesis of each peptide was carried out at a specific location on the array, so as to prepare a peptide array which included the synthetic peptides covering the entire amino acid sequences of the subunits of C1q. The preparation of the array was outsourced to JPT Peptide Technologies GmbH.
To the peptide array was applied 330 μl of an Cy3-labeled goat anti-mouse immunoglobulin (IgG) (1 mg/ml; Zymed Laboratories) diluted 1000-fold with PBS (10 mM phosphate buffer, pH 7.0, 0.1 M NaCl), and the array was sealed and then incubated at 4° C. for 12 hours. After that, the array was washed once with methanol and then 5 times with Milli-Q water for 5 minutes each. The array slide was centrifuged and dried, and scanned with a fluorescence scanner (Agilent DNA microarray scanner; Agilent Technologies), so that fluorescence intensity was quantified at the respective peptide spots on the array using a software (Feature Extraction software; Agilent Technologies). Several spots displaying strong fluorescence intensities were detected. […] Note that in the description, the amino acids are denoted by the one-letter code known in the art.

[2] = system: type III allergic (Arthus) reaction-induced rats; experiment: Immune-complex disease suppression in type III allergic (Arthus) reaction-induced rats, Part 1; type: in vivo; conditions: intraperitoneal administration, 10 or 100 mg/kg
Description: Using sixty-four 7-week-old male Slc:Wistar rats, examinations were made on peptides R1, R2, and R5, in two series of examinations, each using a different method of administration (intraperitoneal administration and tail vein administration). Acclimation was carried out by giving normal solid chow CRF-1 for a period of 9 days or longer. The back of the animals was shaved on the day prior to administration, and a mixed solution of OVA and Evans blue dye was administered into the tail vein on the day of administration. Each peptide solution was administered intraperitoneally or into the tail vein 30 minutes or 50 minutes after the administration of the mixed solution of OVA and Evans blue dye, respectively. For intracutaneous administration of an anti-OVA solution, […] was intracutaneously administered in the back of animals at a dose of 0.1 ml/site 30 minutes or 10 minutes after the administration of the tested substance in the case of intraperitoneal or intravenous administration, respectively, so as to generate a local Arthus reaction. After the reaction was allowed to be generated for 4 hours, the animals were euthanized, the blood was removed thoroughly, and then the dorsal skin was exfoliated. The Arthus reaction sites on the exfoliated skin were punched out, and the Evans blue dye was extracted from the punched skin overnight. The amount of dye leakage was quantified by measuring absorbance for the Evans blue dye with a spectrophotometer and using a calibration curve (see, H. Okamoto, Y. Iwahisa, and M. Terasawa, “Suppression of the Arthus reaction by Y-24180, a potent and specific antagonist of platelet-activating factor”, Agents Actions, 35:149-158 (1992), for experimental procedures used in Example 4).
A predetermined amount of each peptide (peptides R1, R2, and R5) was dissolved in physiological saline to make a 20 mg/ml solution. A 2 mg/ml solution was prepared by diluting the 20 mg/ml solution 10-fold with physiological saline. A 5 mg/ml solution was prepared by dissolving each peptide in a predetermined amount in physiological saline to make a prepared solution.
A mixed solution of OVA and Evans blue dye was administered into the tail vein at a dose of 2 ml/kg. Each peptide solution was administered intraperitoneally or into the tail vein 30 minutes or 50 minutes after the administration of the mixed solution of OVA and Evans blue dye, respectively. For intracutaneous administration of an anti-OVA solution, […] was intracutaneously administered in the back of animals at a dose of 0.1 mL/site 30 minutes or 10 minutes after the administration of the tested substance in the case of intraperitoneal or intravenous administration, respectively, so as to generate a local Arthus reaction. Intracutaneous administration was conducted at 2 sites for PBS and at 2 sites for the anti-OVA solution per animal. After the reaction was allowed to be generated for 4 hours, the animals were euthanized by decapitation under ether anesthesia, the blood was removed thoroughly, and then the dorsal skin was exfoliated. The Arthus reaction sites on the exfoliated skin were punched out and subjected to dye extraction.
Several cuttings were made in the skin strips that were punched out with a punch. […] The amount of dye leakage was calculated from a calibration curve of known amounts of the dye.
The mean value (mean)±standard deviation (SD) for each group was calculated with body-weight measurements and amounts of dye leakage. […]

For “STGKFTCKVPGLYYF (Immunoglobulin binding peptide) [R5]”, the Fluorescence intensity [1] was 65,311 and the “effect of immune-complex disease suppression (dye leakage)” value [2] was “clear and satisfactory effects of immune-complex disease suppression; also recorded: suppressed”.
